According to patent publication US20110318375A1, “Immunomodulatory Therapeutic Agents” (priority 2009, published 2011):

Key:
mouse antibody IgE = details: cited from earlier work
Cytokine 12 Panel [1] = assay: Cytokine 12 panel after oral peptide preparation taken daily for two weeks; format: in vivo, human; details: Pre: prior to the IV dose, 4 weeks after oral dosing
Source text: Peptide was suspended in an appropriate medium and a healthy volunteer took the preparation daily for two weeks, drawing blood for a cytokine 12 panel every five days. Due to the size of the molecules absorption from the mucosal route seemed unlikely, and the rapid digestion of peptides in the stomach would eliminate their efficacy in a true oral route. This same healthy volunteer had lab work drawn right before receiving an IV dose of synthetic Fibrinopeptide A. The IV dose was expected to have a more profound therapeutic effect, since treatment was simulating a normal intravascular biologic process. […] (Table 3). [table]

Cytokine 12 Panel [2] = assay: Cytokine 12 panels following oral administration of FPA (Table 6); format: in vivo, human; design: IL-12 / IL-10 / TNF-α / IL-2: unit not given here; details: for IFN-γ / IL-4 / IL-5 / IL-6 / IL-8 / IL-13: nl: 0-5; for IL-12: nl: 0-6; for IL-2: nl: 0-12; for IL-10: nl: 0-18; for TNF-α: nl: 0-22; for IL-1β: nl: 0-36; for IL-2R: nl: 0-1033
Source text: One of these patients was the same patient previously utilized, while the other was relatively neve to any previous Fibrinopeptide A treatment. The patient had taken two doses orally approximately seven weeks prior to this treatment, no lab work had been obtained with this prior dosing. […] This again elucidates the lack of effect of Fibrinopeptide A when given IV and the importance of utilizing a lymphatic route when treating with Fibrinopeptide A, and probably the others as well. [table] The data in table 6 further illustrates the up regulation of all aspects of the immune system in response to this persistent exposure to synthetic activated fibrinopeptide A through a lymphatic administration.

[3] = test system: Experimental Allergic Encephalomyelitis (EAE); assay: Acute Experimental Allergic Encephalomyelitis mouse model; format: in vivo, mice; details: daily, subcutaneous; recovery after day 22, worsened on days 27 and 28; p<0.1
Source text: The carboxy terminus of activated Fibrinopeptide A was considered to be the active portion of the peptide, the carboxy terminus was PEGylate (addition of Poly Ethylene Glycol). This molecule was used to perform an EAE study. This study was designed to mimic the study done by Ruhenstroth-Bauer in 1981 utilizing two of these peptides, and showing some albeit mild benefit. The synthetic PEGylated peptide was expected to perform considerably better than the non-PEGylated peptide. Synthetic non-PEGylated peptide A was used as a positive control to compare the PEGylated verses non-PEGylated peptides. The medications were administered subcutaneously, due to this route having some efficacy in the cytokine profiles.
Test article 2 (PEGylated peptide) dosed daily, every 3 days and weekly never even approached statistically significant benefit.
During the first 22 days of the study EAE development in mice treated with test article 1 (daily non-PEGylated peptide A) was very similar to the vehicle-treated mice. […] Disease worsened in test article 1-treated mice on days 27 and 28 and became very similar to disease severity to the mice in the vehicle-treated group.

Cytokine 12 Panel [4] = assay: Cytokine 12 panel, oral daily dosing with 3 mg Fibrinopeptide A (Table 5); format: in vivo, human; design: IL-10 / TNF-α / IL-2 / IL-12: unit not given here; details: for IFN-γ / IL-4 / IL-5 / IL-6 / IL-8 / IL-13: nl: 0-5; for IL-12: nl: 0-6; for IL-2: nl: 0-12; for IL-10: nl: 0-18; for TNF-α: nl: 0-22; for IL-1β: nl: 0-36; for IL-2R: nl: 0-1033
Source text: [table] […] One of these patients was the same patient previously utilized, while the other was relatively neve to any previous Fibrinopeptide A treatment. The patient had taken two doses orally approximately seven weeks prior to this treatment, no lab work had been obtained with this prior dosing. […] Note the response in the IL-10 and IL-1b in this patient similar to the other patients. However, this patient return back toward baseline values much more rapidly than the other patients, accentuating the variability expected in this type of response from one patient to another. This also validates the efficacy of oral administration to achieve an anti-inflammatory/immunomodulatory benefit.

Ponto Toro Virus = format: in vivo, mice; details: Ponto Toro infection, one dose; placebo group 25% survived
[5] = 2 weeks back on FPA (different carrier)

ADSGEGDFLAEGGGV (listed as Homo sapiens) [Fibrinopeptide A]
deglycosylation of IgE (mouse antibody IgE): deglycosylates mouse antibody IgE | IFN-γ (Cytokine 12 Panel [1]; nl: 0-5): <5 | IL-4 (Cytokine 12 Panel [1]; nl: 0-5): <5 | IL-5 (Cytokine 12 Panel [1]; nl: 0-5): <5 | IL-6 (Cytokine 12 Panel [1]; nl: 0-5): 13 | IL-8 (Cytokine 12 Panel [1]; nl: 0-5): <5 | IL-12 (Cytokine 12 Panel [1]; nl: 0-6): <5 | IL-2 (Cytokine 12 Panel [1]; nl: 0-12): <5 | IL-10 (Cytokine 12 Panel [1]; nl: 0-18): 96 | TNF-α (Cytokine 12 Panel [1]; nl: 0-22): <5 | IL-1β (Cytokine 12 Panel [1]; nl: 0-36): 52 | IL-2R (Cytokine 12 Panel [1]; nl: 0-1033): 550 | IFN-γ (Cytokine 12 Panel [2]; 2 Weeks off FPA): <5 | IL-4 (Cytokine 12 Panel [2]; 2 Weeks off FPA): <5 | IL-5 (Cytokine 12 Panel [2]; 2 Weeks off FPA): 6 | IL-6 (Cytokine 12 Panel [2]; 2 Weeks off FPA): 66 | IL-8 (Cytokine 12 Panel [2]; 2 Weeks off FPA): 8 | IL-13 (Cytokine 12 Panel [2]; 2 Weeks off FPA): 8 | IL-12 (Cytokine 12 Panel [2]; 2 Weeks off FPA): 6 | IL-2 (Cytokine 12 Panel [2]; 2 Weeks off FPA): 7 | IL-10 (Cytokine 12 Panel [2]; 2 Weeks off FPA): 230 | TNF-α (Cytokine 12 Panel [2]; 2 Weeks off FPA): <5 | IL-1β (Cytokine 12 Panel [2]; 2 Weeks off FPA): 37 | IL-2R (Cytokine 12 Panel [2]; 2 Weeks off FPA): 255 | IFN-γ (Cytokine 12 Panel [2]; [5]): 5 | IL-4 (Cytokine 12 Panel [2]; [5]): <5 | IL-5 (Cytokine 12 Panel [2]; [5]): 6 | IL-6 (Cytokine 12 Panel [2]; [5]): 63 | IL-8 (Cytokine 12 Panel [2]; [5]): 8 | IL-13 (Cytokine 12 Panel [2]; [5]): 9 | IL-12 (Cytokine 12 Panel [2]; [5]): 6 | IL-2 (Cytokine 12 Panel [2]; [5]): 7 | IL-10 (Cytokine 12 Panel [2]; [5]): 204 | TNF-α (Cytokine 12 Panel [2]; [5]): <5 | IL-1β (Cytokine 12 Panel [2]; [5]): 48 | IL-2R (Cytokine 12 Panel [2]; [5]): 268 | IFN-γ (Cytokine 12 Panel [2]; oral, 1 Week): <5 | IL-4 (Cytokine 12 Panel [2]; oral, 1 Week): <5 | IL-5 (Cytokine 12 Panel [2]; oral, 1 Week): <5 | IL-6 (Cytokine 12 Panel [2]; oral, 1 Week): <5 | IL-8 (Cytokine 12 Panel [2]; oral, 1 Week): <5 | IL-13 (Cytokine 12 Panel [2]; oral, 1 Week): <5 | IL-12 (Cytokine 12 Panel [2]; oral, 1 Week): <5 | IL-2 (Cytokine 12 Panel [2]; oral, 1 Week): <5 | IL-10 (Cytokine 12 Panel [2]; oral, 1 Week): 141 | TNF-α (Cytokine 12 Panel [2]; oral, 1 Week): <5 | IL-1β (Cytokine 12 Panel [2]; oral, 1 Week): 30 | IL-2R (Cytokine 12 Panel [2]; oral, 1 Week): 504 | IFN-γ (Cytokine 12 Panel [2]; oral, 2 weeks): 5 | IL-4 (Cytokine 12 Panel [2]; oral, 2 weeks): <5 | IL-5 (Cytokine 12 Panel [2]; oral, 2 weeks): 5 | IL-6 (Cytokine 12 Panel [2]; oral, 2 weeks): 77 | IL-8 (Cytokine 12 Panel [2]; oral, 2 weeks): 8 | IL-13 (Cytokine 12 Panel [2]; oral, 2 weeks): 6 | IL-12 (Cytokine 12 Panel [2]; oral, 2 weeks): 6 | IL-2 (Cytokine 12 Panel [2]; oral, 2 weeks): 7 | IL-10 (Cytokine 12 Panel [2]; oral, 2 weeks): 183 | TNF-α (Cytokine 12 Panel [2]; oral, 2 weeks): <5 | IL-1β (Cytokine 12 Panel [2]; oral, 2 weeks): 83 | IL-2R (Cytokine 12 Panel [2]; oral, 2 weeks): 254 | difference in disease severity versus vehicle-treated mice [3]: did not reach statistical significance | IFN-γ (Cytokine 12 Panel [4]; Off 1 Week): 5 | IL-4 (Cytokine 12 Panel [4]; Off 1 Week): <5 | IL-5 (Cytokine 12 Panel [4]; Off 1 Week): 5 | IL-6 (Cytokine 12 Panel [4]; Off 1 Week): 5 | IL-8 (Cytokine 12 Panel [4]; Off 1 Week): 8 | IL-13 (Cytokine 12 Panel [4]; Off 1 Week): 8 | IL-12 (Cytokine 12 Panel [4]; Off 1 Week): 6 | IL-2 (Cytokine 12 Panel [4]; Off 1 Week): 6 | IL-10 (Cytokine 12 Panel [4]; Off 1 Week): 28 | TNF-α (Cytokine 12 Panel [4]; Off 1 Week): <5 | IL-1β (Cytokine 12 Panel [4]; Off 1 Week): <5 | IL-2R (Cytokine 12 Panel [4]; Off 1 Week): 147 | elevation of Interleukin-13 (Cytokine 12 Panel [4]; giving just Fibrinopeptide A): does not result in an elevation | IFN-γ (Cytokine 12 Panel [4]; oral daily 3 mg, 1 Week): <5 | IL-4 (Cytokine 12 Panel [4]; oral daily 3 mg, 1 Week): <5 | IL-5 (Cytokine 12 Panel [4]; oral daily 3 mg, 1 Week): <5 | IL-6 (Cytokine 12 Panel [4]; oral daily 3 mg, 1 Week): <5 | IL-8 (Cytokine 12 Panel [4]; oral daily 3 mg, 1 Week): <5 | IL-13 (Cytokine 12 Panel [4]; oral daily 3 mg, 1 Week): <5 | IL-12 (Cytokine 12 Panel [4]; oral daily 3 mg, 1 Week): <5 | IL-2 (Cytokine 12 Panel [4]; oral daily 3 mg, 1 Week): <5 | IL-10 (Cytokine 12 Panel [4]; oral daily 3 mg, 1 Week): 137 | TNF-α (Cytokine 12 Panel [4]; oral daily 3 mg, 1 Week): <5 | IL-1β (Cytokine 12 Panel [4]; oral daily 3 mg, 1 Week): 30 | IL-2R (Cytokine 12 Panel [4]; oral daily 3 mg, 1 Week): 423 | mice that lived (overall survivability) (Ponto Toro Virus): 60%
